Assay results from PMC11672400, “Synthesis, Spectroscopic Characterization, Structural Analysis, and Evaluation of Anti-Tumor, Antimicrobial, and Antibiofilm Activities of Halogenoaminopyrazoles Derivatives” (Antibiotics, 2024).
Values after ≈ are worked out from the molar mass of the structure shown. Where two headings read alike, the source gives them in different places.

Tests used:
[1] = MTT cell viability / cytotoxicity on normal fibroblasts; assay type: cell-based, mouse; details: mouse, read-out: Cell viability on NCTC cells (%)
Excerpt: (§1) Merck chemicals were utilized.
(§2) Untreated cells were used as control, considered 100% viable cells.

[2] = system: NCTC (clone 929) mouse fibroblast cells; test: as above; assay type: cell-based; details: Mus musculus, NCTC clone 929; NCTC normal fibroblasts, MTT, 48 h
Excerpt: as §1, §2

[3] = system: Pseudomonas aeruginosa ATCC27853; test: Antibiofilm assay (crystal violet), MBIC; assay type: cell-based; details: Pseudomonas aeruginosa, ATCC27853, 24 h, 37 °C, read-out: Minimum biofilm inhibition concentration (MBIC), Pseudomonas aeruginosa ATCC27853
Procedure, shortened: (§3)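 Biofilms grown in nutrient broth with test substances for 24 h at 37 °C. After rinsing with sterile physiological water, attached cells were fixed 5 min with methanol, then crystal violet stained.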

[4] = system: Staphylococcus aureus ATCC25923; test: Antibiofilm assay (crystal violet), MBIC; assay type: cell-based; details: Staphylococcus aureus, ATCC25923; 24 h, 37 °C; read-out: Minimum biofilm inhibition concentration (MBIC), Staphylococcus aureus ATCC25923
Procedure, shortened: as §3

[5] = system: Escherichia coli ATCC25922; test: Antibiofilm assay (crystal violet), MBIC; assay type: cell-based; details: Escherichia coli, ATCC25922, 24 h, 37 °C, read-out: Minimum biofilm inhibition concentration (MBIC), Escherichia coli ATCC25922
Procedure, shortened: as §3

[6] = system: Enterococcus faecalis ATCC29212; test: Antibiofilm assay (crystal violet), MBIC; assay type: cell-based; details: Enterococcus faecalis, ATCC29212, 24 h, 37 °C, read-out: Minimum biofilm inhibition concentration (MBIC), Enterococcus faecalis ATCC29212
Procedure, shortened: as §3

[7] = system: HEp-2 epithelial tumor cells; test: MTT cell viability / anti-tumor activity; details: Homo sapiens; for viability at 3.1 µg/mL / viability at 6.25 µg/mL / viability at 12.5 µg/mL / viability at 25 µg/mL / viability at 50 µg/mL: read-out: Cell viability on Hep2 cells (%); for IC50: read-out: IC50 µg/mL on HEp-2 Cells 48 h, HEp-2 epithelial tumor cells, MTT, 48 h
Method: The cytotoxicity of the halogenoaminopyrazole derivatives 4a–f and 5a–e was tested on L929 mouse fibroblast cells, and their anti-tumor activity was evaluated on the human carcinoma epithelial cell line HEp-2. The experiments were performed in a concentration range of 3.1–50 μg/mL.
The MTT test was used, 3-(4,5-dimethylthiazol-2-yl)-2,5-diphenyl tetrazolium bromide), which is reduced to insoluble purple-blue formazan crystals precipitated by living cells. Cell viability assessed using the MTT assay reflects the activity of mitochondrial enzymes in treated cells compared to the control culture of untreated cells.
To assess the biocompatibility of the substances, a stable mouse fibroblast cell line, NCTC (clone 929), was grown in minimal essential medium (MEM) with 10% fetal bovine serum (FBS) and 2 mM L-glutamine, along with 100 U/mL penicillin, 100 µg/mL streptomycin, and 500 µg/mL neomycin. The concentration of the compounds used was 0.06 g/2 mL DMSO.
In cytotoxicity experiments, compound solutions were utilized at concentrations of 3.1 μg/mL, 6.25 μg/mL, 12.5 μg/mL, 25 μg/mL, and 50 μg/mL. The NCTC cell suspension was placed into 96-well culture plates with a concentration of 4 × 10^4 cells/mL and incubated at 37 °C for 24 h in a 5% CO2 humidified atmosphere. The compounds under study were placed in sets of three at varying concentrations ranging from 3.1 μg/mL to 50 μg/mL in every well, and the plates were then kept under standard conditions for 48 h. Cell viability was determined through the utilization of the MTT assay. Next, the MTT solution was removed, then isopropanol was added to solubilize the formazan crystals. The colored solution was then measured for absorbance at 570 nm using a Berthold Technologies, LB 940 microplate reader (Bad Wildbad, Germany). The outcomes were determined based on Formula (1) while considering that the recorded optical density is directly related to the number of viable cells in the cell culture being examined [35, 36]. % cell viability = (OD sample/OD control) × 100%(1)
For each tested compound, a graph representing percentage cell viability versus concentrations (in the range 3.1–50 µg/mL) was obtained. Then, the IC50 value was calculated by using ED50 plus V1.0 software.

[8] = system: Pseudomonas aeruginosa ATCC27853; test: Qualitative evaluation of antimicrobial activity (inhibition zone, spot on agar); assay type: cell-based; parameters: key: (+) inhibited bacterial growth; (-) did not inhibit bacterial growth; details: 0.06 g/2 mL DMSO, 5 µL spot
Method: (§4) For testing the antimicrobial/antibiofilm activity, the concentration of the studied compounds was identical to 0.06 g/2 mL DMSO. 0.5 Standard McFarland suspension was used, which was inoculated onto Mueller Hinton agar plates, (Remel, Lenexa, KS, USA), 5 µL of each compound was spotted and incubated overnight at 37 °C. Antimicrobial activity was observed as zones of inhibition formed around the spot.

[9] = system: Staphylococcus aureus ATCC25923; test: as above; assay type: cell-based; parameters: key: (+) inhibited bacterial growth; (-) did not inhibit bacterial growth; details: 0.06 g/2 mL DMSO, 5 µL spot
Method: as §4

[10] = system: Escherichia coli ATCC25922; test: as above; assay type: cell-based; parameters: key: (+) inhibited bacterial growth; (-) did not inhibit bacterial growth; details: 0.06 g/2 mL DMSO, 5 µL spot
Method: as §4

[11] = system: Enterococcus faecalis ATCC29212; test: as above; assay type: cell-based; parameters: key: (+) inhibited bacterial growth; (-) did not inhibit bacterial growth; details: 0.06 g/2 mL DMSO, 5 µL spot
Method: as §4

[12] = system: Pseudomonas aeruginosa ATCC27853; test: MIC by serial microdilution in liquid medium; assay type: cell-based; details: Pseudomonas aeruginosa, ATCC27853; 24 h, 37 °C; read-out: Minimum inhibitory concentration, Pseudomonas aeruginosa ATCC27853
Procedure, shortened: (§5)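 Twofold serial dilutions from a DMSO stock (10 mg/mL) in Tryptone Soy Broth, inoculated with 10 µL of a 10^6 CFU/mL suspension, incubated 24 h at 37 °C. Growth judged visually and by OD 620 nm; MIC (µg/mL) is the lowest concentration without growth, run in triplicate.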

[13] = system: Staphylococcus aureus ATCC25923; test: MIC by serial microdilution in liquid medium; assay type: cell-based; details: Staphylococcus aureus, ATCC25923; 24 h, 37 °C; read-out: Minimum inhibitory concentration, Staphylococcus aureus ATCC25923
Procedure, shortened: as §5

[14] = system: Escherichia coli ATCC25922; test: MIC by serial microdilution in liquid medium; assay type: cell-based; details: Escherichia coli, ATCC25922; 24 h, 37 °C; read-out: Minimum inhibitory concentration, Escherichia coli ATCC25922
Procedure, shortened: as §5

[15] = system: Enterococcus faecalis ATCC29212; test: MIC by serial microdilution in liquid medium; assay type: cell-based; details: Enterococcus faecalis, ATCC29212; 24 h, 37 °C; read-out: Minimum inhibitory concentration, Enterococcus faecalis ATCC29212
Procedure, shortened: as §5

Row | Compound | viability at 24 h, 3.1 µg/mL [1] [%] | viability at 48 h, 3.1 µg/mL [1] [%] | viability at 24 h, 6.25 µg/mL [1] [%] | viability at 48 h, 6.25 µg/mL [1] [%] | viability at 24 h, 12.5 µg/mL [1] [%] | viability at 48 h, 12.5 µg/mL [1] [%] | viability at 24 h, 25 µg/mL [1] [%] | viability at 48 h, 25 µg/mL [1] [%] | viability at 24 h, 50 µg/mL [1] [%] | viability at 48 h, 50 µg/mL [1] [%] | IC50 [2] [µg/mL] | minimal effective concentration [3] [µg/mL] | minimal effective concentration [4] [µg/mL] | minimal effective concentration [5] [µg/mL] | minimal effective concentration [6] [µg/mL] | viability at 3.1 µg/mL ([7]; HEp-2, 24 h) [%] | viability at 6.25 µg/mL ([7]; HEp-2, 24 h) [%] | viability at 12.5 µg/mL ([7]; HEp-2, 24 h) [%] | viability at 25 µg/mL ([7]; HEp-2, 24 h) [%] | viability at 50 µg/mL ([7]; HEp-2, 24 h) [%] | other results
1 | Cc1nn(CN(Cn2nc(C)c([N+](=O)[O-])c2C)c2ccc(I)cc2)c(C)c1[N+](=O)[O-] [5d, N,N-bis-[(3,5-dimetyl-4-nitro-1H-pyrazol-1-yl)-methyl]-4-iodoaniline] | 103 ± 1.49 | 93.58 ± 0.71 | 108 ± 2.4 | 103 | 106 ± 2.05 | 102 ± 3.03 | 98.4 ± 3.87 | 95.8 ± 2.12 | 83 ± 2.9 | 88.3 ± 1.55 | > 50 | 930 ± 0.15 | 930 ± 0.15 | 1870 ± 0.15 | 1870 ± 0.15 | 88.45 ± 0.28 | 89.15 ± 0.73 | 91.41 ± 0.69 | 89.86 ± 0.48 | 89.86 ± 0.16 | viability at 3.1 µg/mL ([7]; HEp-2, 48 h): 96.17 ± 0.13%; viability at 6.25 µg/mL ([7]; HEp-2, 48 h): 78.61 ± 0.67%; viability at 12.5 µg/mL ([7]; HEp-2, 48 h): 61.51 ± 0.34%; viability at 25 µg/mL ([7]; HEp-2, 48 h): 45.75 ± 0.33%; viability at 50 µg/mL ([7]; HEp-2, 48 h): 20.8%; IC50 ([7]; HEp-2, 48 h): 26.61 ± 0.11 µg/mL (≈ 0.0507 mM); Qualitative antimicrobial activity, Pseudomonas aeruginosa ATCC27853 [8]: -; Qualitative antimicrobial activity, Staphylococcus aureus ATCC25923 [9]: -; Qualitative antimicrobial activity, Escherichia coli ATCC25922 [10]: -; Qualitative antimicrobial activity, Enterococcus faecalis ATCC29212 [11]: -; MIC [12]: 1870 ± 0.04 µg/mL (≈ 3.56 mM); MIC [13]: 1870 ± 0.07 µg/mL (≈ 3.56 mM); MIC [14]: 1870 ± 0.04 µg/mL (≈ 3.56 mM); MIC [15]: 1870 ± 0.05 µg/mL (≈ 3.56 mM)
2 | Cc1nn(CN(Cn2nc(C)c([N+](=O)[O-])c2C)c2cccc(Cl)c2)c(C)c1[N+](=O)[O-] [5e, N,N-bis-[(3,5-dimetyl-4-nitro-1H-pyrazol-1-yl)-methyl]-3-chloroaniline] | 101.9 ± 0.73 | 95.71 ± 0.5 | 98.57 ± 0.27 | 89.47 ± 0.34 | 88.26 ± 0.32 | 69.25 ± 0.3 | 77.7 ± 0.88 | 40.3 ± 0.68 | 65.79 ± 0.42 | 26.4 ± 0.46 | 20.3 ± 0.45 (≈ 0.0468 mM) | 930 ± 0.15 | 930 ± 0.15 | 930 ± 0.15 | 930 ± 0.15 | 103.7 ± 0.73 | 102.4 ± 0.28 | 82.29 ± 0.32 | 70.5 ± 0.88 | 59.94 ± 0.42 | melting point: 154 to 155 °C; viability at 3.1 µg/mL ([7]; HEp-2, 48 h): 102.5 ± 0.48%; viability at 6.25 µg/mL ([7]; HEp-2, 48 h): 96.06 ± 0.34%; viability at 12.5 µg/mL ([7]; HEp-2, 48 h): 77.4 ± 0.63%; viability at 25 µg/mL ([7]; HEp-2, 48 h): 60.3 ± 0.67%; viability at 50 µg/mL ([7]; HEp-2, 48 h): 37.7 ± 0.46%; IC50 ([7]; HEp-2, 48 h): 31.7 ± 0.48 µg/mL (≈ 0.0731 mM); Qualitative antimicrobial activity, Pseudomonas aeruginosa ATCC27853 [8]: -; Qualitative antimicrobial activity, Staphylococcus aureus ATCC25923 [9]: -; Qualitative antimicrobial activity, Escherichia coli ATCC25922 [10]: -; Qualitative antimicrobial activity, Enterococcus faecalis ATCC29212 [11]: -; MIC [12]: 1870 ± 0.04 µg/mL (≈ 4.31 mM); MIC [13]: 930 ± 0.04 µg/mL (≈ 2.14 mM); MIC [14]: 1870 ± 0.08 µg/mL (≈ 4.31 mM); MIC [15]: 1870 ± 0.09 µg/mL (≈ 4.31 mM)
